How the values were obtained:
Type in all cases: binding
mTOR = biological target: T1, mTOR (Homo sapiens, UniProt P42345); assay: Drug pulldown with immobilized phenylthiazole ligand 1, mass spectrometry analysis; settings: 1:1 mixture of Jurkat and Ramos cell lysate
T1 construct: with a 1:1 mixture of Jurkat and Ramos cell lysate sample containing 50 mg of protein; endogenous in cells; host or cells: 1:1 mixture of Jurkat and Ramos cell lysates
From the text: (§1) A protein gel after staining with Coomassie blue is shown. The indicated gel areas were cut out as gel slices and proteins were subjected to analysis by mass spectrometry. […] Proteins bound to immobilized phenylthiazole ligand 1 were eluted with SDS sample buffer and separated by SDS-polyacrylamide gel electrophoresis (SDS-PAGE). The following proteins were identified in this experiment: DNA-PK, ATM, and mTOR. […] Beads were collected, transfered to Mobicol-columns (MoBiTech 10055) and washed with 10 ml lysis buffer containing 0.5% NP40 detergent, followed by 5 ml lysis buffer with 0.25% detergent. […] Proteins were then separated by SDS-Polyacrylamide electrophoresis (SDS-PAGE). Gel-separated proteins were reduced, alkylated and digested in gel essentially following the procedure described by Shevchenko et al., 1996, Anal. Chem. 68:850-858. Briefly, gel-separated proteins were excised from the gel using a clean scalpel, reduced using 10 mM DTT (in 5 mM ammonium bicarbonate, 54° C., 45 min) and subsequently alkylated with 55 mM iodoacetamid (in 5 mM ammonium bicarbonate) at room temperature in the dark (30 minutes). Reduced and alkylated proteins were digested in gel with porcine trypsin (Promega) at a protease concentration of 12.5 ng/μl in 5 mM ammonium bicarbonate. Digestion was allowed to proceed for 4 hours at 37° C. and the reaction was subsequently stopped using 5 μl 5% formic acid. Gel plugs were extracted twice with 20 μl 1% TFA and pooled with acidified digest supernatants. […] Peptide samples were injected into a nano LC system (CapLC, Waters or Ultimate, Dionex) which was directly coupled either to a quadrupole TOF (QTOF2, QTOF Ultima, QTOF Micro, Micromass) or ion trap (LCQ Deca XP) mass spectrometer. […] Proteins were identified by correlating the measured peptide mass and fragmentation data with the same data computed from the entries in the database using the software tool Mascot (Matrix Science; Perkins et al., 1999. Probability-based protein identification by searching sequence databases using mass spectrometry data. Electrophoresis 20, 3551-3567). […]

ATM = biological target: T2, ATM (Homo sapiens, UniProt Q13315); assay: as above; settings: 1:1 mixture of Jurkat and Ramos cell lysate
T2 construct: with a 1:1 mixture of Jurkat and Ramos cell lysate sample containing 50 mg of protein; endogenous in cells; host or cells: 1:1 mixture of Jurkat and Ramos cell lysates
From the text: as §1

DNA-PK = biological target: T3, DNA-PK (Homo sapiens, UniProt P78527); assay: as above; settings: 1:1 mixture of Jurkat and Ramos cell lysate
T3 construct: with a 1:1 mixture of Jurkat and Ramos cell lysate sample containing 50 mg of protein; endogenous in cells; host or cells: 1:1 mixture of Jurkat and Ramos cell lysates
From the text: as §1

PI3K gamma = biological target: T4, PI3K gamma (Homo sapiens, UniProt P48736); assay: Drug pulldown with immobilized phenylthiazole ligand 1, Western blot detection; settings: MOLT-4 cell lysate
T4 construct: PI3K gamma protein was captured by immobilized phenylthiazole ligand 1 from MOLT-4 cell lysate; endogenous in cells; host or cells: MOLT-4 (ATCC CRL-1582) cell lysate
Procedure: (§2) As biological material a cell lysate prepared from MOLT-4 cells was used. The drug pulldown experiment was performed as described in Example 2 with lysate samples containing 50 mg of protein. Captured proteins were eluted with DMSO containing buffer (lane 1), 100 μM of free phenylthiazole ligand 1 or SDS sample buffer (lane 3). The eluted samples were separated on SDS-polyacrylamide gels and transferred to membranes. The blots were first incubated with specific antibodies directed against PI3K gamma (FIG. 2A) and PI3K delta (FIG. 2B). Secondary detection antibodies labeled with fluorescent dyes for detection were used with the Odyssey infrared imaging system. Lane 1: DMSO elution control; lane 2: elution with 100 μM free phenylthiazole ligand 1; lane 3: SDS elution. […]
(§3) For Western blot analysis bound proteins were eluted from the affinity matrix and subsequently separated by SDS-Polyacrylamide gel elecrophoresis. PI3K gamma and PI3K delta were detected with specific antibodies (FIG. 2).
(§4) MOLT-4 cells were homogenized in a Potter S homogenizer in lysis buffer: 50 mM Tris-HCl, 0.8% NP40, 5% glycerol, 150 mM NaCl, 1.5 mM MgCl2, 25 mM NaF, 1 mM sodium vanadate, 1 mM DTT, pH 7.5. […] The supernatant was transferred again to a fresh 50 ml falcon tube, the protein concentration was determined by a Bradford assay (BioRad) and samples containing 50 mg of protein per aliquot were prepared. […]

PI3K delta = biological target: T5, PI3K delta (Homo sapiens, UniProt O00329); assay: as above; settings: MOLT-4 cell lysate
T5 construct: endogenous in cells; host or cells: MOLT-4 (ATCC CRL-1582) cell lysate
Procedure: as §2, §3, §4

T3 sequence (P78527 whole entry): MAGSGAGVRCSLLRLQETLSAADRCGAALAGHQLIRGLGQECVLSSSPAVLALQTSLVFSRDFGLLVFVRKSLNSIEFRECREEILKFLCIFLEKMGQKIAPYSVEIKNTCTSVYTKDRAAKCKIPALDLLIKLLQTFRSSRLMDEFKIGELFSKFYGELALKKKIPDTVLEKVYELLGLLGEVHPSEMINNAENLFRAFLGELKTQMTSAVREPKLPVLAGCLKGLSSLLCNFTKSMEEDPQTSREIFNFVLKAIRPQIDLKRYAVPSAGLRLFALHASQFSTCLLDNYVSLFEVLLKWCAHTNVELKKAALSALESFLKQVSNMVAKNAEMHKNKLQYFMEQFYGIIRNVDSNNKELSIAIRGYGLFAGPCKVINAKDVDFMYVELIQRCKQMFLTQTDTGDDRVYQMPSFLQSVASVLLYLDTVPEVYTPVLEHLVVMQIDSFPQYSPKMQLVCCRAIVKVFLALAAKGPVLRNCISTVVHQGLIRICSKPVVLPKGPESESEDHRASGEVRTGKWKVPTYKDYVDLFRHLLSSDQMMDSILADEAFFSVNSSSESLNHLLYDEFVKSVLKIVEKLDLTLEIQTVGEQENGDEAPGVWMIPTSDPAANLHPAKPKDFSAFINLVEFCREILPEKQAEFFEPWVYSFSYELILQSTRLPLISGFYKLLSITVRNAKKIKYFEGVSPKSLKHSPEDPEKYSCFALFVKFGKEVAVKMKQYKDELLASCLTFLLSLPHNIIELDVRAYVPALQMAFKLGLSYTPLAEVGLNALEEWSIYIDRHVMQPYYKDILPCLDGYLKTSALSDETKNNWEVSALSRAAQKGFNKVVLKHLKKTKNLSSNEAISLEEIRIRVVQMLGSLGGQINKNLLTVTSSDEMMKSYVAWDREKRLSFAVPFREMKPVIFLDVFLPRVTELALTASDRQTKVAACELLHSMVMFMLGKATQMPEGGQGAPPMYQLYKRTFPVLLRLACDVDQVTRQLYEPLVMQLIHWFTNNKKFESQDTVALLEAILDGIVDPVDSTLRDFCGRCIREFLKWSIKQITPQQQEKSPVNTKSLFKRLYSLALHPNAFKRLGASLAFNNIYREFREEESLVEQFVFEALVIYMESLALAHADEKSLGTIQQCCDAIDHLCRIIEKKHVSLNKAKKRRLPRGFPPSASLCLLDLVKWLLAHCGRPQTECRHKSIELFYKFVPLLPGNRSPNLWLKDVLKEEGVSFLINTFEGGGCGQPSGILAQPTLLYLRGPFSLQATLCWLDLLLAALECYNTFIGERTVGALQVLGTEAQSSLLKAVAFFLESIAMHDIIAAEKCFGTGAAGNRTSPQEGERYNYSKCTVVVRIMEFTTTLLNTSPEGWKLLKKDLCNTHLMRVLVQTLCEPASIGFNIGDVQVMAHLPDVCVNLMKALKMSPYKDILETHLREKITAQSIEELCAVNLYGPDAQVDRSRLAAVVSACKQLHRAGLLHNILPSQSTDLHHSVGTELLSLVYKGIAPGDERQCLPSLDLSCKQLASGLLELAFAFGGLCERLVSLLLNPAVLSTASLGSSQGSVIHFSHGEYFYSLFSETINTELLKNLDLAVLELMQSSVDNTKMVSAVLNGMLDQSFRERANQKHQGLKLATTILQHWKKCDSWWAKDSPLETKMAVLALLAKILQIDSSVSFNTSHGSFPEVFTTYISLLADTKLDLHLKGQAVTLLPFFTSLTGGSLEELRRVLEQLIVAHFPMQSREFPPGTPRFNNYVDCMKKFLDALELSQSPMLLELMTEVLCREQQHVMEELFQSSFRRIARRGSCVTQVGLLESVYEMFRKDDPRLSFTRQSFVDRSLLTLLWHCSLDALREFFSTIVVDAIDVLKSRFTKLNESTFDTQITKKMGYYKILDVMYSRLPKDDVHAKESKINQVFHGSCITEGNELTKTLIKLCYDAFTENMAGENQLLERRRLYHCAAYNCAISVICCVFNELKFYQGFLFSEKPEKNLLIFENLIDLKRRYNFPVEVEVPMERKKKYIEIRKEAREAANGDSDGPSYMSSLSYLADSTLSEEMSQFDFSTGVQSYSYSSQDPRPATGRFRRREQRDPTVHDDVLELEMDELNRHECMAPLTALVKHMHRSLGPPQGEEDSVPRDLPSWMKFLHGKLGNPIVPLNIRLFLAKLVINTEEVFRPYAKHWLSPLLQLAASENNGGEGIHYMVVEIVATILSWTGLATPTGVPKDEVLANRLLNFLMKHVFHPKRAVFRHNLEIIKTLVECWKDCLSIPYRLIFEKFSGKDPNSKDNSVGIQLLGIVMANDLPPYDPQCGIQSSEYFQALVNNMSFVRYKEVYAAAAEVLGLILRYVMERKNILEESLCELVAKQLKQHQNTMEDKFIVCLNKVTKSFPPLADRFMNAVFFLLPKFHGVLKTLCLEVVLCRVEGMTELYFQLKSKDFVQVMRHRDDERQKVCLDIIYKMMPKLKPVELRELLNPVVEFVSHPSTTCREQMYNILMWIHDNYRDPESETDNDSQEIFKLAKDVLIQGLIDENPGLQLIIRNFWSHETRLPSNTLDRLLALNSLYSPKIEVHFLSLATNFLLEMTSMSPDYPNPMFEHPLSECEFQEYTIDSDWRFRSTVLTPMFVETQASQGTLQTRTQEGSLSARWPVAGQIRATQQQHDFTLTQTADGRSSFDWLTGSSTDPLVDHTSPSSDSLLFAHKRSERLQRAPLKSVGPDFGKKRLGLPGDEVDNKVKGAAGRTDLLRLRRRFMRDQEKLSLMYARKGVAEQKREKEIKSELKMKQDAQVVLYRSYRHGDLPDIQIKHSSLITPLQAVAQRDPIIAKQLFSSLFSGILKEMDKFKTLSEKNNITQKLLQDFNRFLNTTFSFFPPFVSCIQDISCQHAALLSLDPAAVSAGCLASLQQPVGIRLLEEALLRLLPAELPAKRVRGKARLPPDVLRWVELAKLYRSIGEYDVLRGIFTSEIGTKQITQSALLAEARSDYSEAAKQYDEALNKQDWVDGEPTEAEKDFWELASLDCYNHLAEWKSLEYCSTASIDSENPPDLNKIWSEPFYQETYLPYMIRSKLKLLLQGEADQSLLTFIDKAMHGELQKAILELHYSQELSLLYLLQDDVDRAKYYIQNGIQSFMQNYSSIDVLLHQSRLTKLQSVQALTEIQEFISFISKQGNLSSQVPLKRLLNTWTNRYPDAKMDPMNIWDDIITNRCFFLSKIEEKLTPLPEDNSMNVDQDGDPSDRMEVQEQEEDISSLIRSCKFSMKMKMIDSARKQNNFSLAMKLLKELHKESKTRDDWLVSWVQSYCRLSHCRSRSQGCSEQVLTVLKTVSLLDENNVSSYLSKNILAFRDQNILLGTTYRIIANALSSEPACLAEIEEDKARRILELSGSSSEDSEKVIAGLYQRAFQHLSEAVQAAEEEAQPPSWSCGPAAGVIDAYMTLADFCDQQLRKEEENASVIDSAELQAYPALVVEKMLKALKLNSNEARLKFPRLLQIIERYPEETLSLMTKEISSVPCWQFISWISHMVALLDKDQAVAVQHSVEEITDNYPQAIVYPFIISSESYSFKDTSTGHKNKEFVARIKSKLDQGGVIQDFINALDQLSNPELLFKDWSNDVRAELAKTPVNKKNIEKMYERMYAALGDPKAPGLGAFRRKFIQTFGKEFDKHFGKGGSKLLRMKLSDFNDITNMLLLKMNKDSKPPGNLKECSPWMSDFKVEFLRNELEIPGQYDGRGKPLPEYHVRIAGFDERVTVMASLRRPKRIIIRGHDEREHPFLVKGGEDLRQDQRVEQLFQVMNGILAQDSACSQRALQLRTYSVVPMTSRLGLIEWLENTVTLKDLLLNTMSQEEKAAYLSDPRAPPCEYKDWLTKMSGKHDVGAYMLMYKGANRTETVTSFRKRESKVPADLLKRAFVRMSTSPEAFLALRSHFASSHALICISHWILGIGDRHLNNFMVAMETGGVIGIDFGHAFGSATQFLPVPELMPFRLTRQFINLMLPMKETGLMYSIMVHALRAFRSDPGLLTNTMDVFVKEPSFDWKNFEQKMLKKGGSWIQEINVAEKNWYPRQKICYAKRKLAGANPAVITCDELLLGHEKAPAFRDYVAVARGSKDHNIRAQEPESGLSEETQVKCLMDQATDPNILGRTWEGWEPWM

- mTOR bound to immobilized ligand, identified by mass spectrometry (mTOR): identified
- ATM bound to immobilized ligand, identified by mass spectrometry (ATM): identified
- DNA-PK bound to immobilized ligand, identified by mass spectrometry (DNA-PK): identified
- capture (pulldown) of PI3K gamma from cell lysate (PI3K gamma): captures (pulls down)
- capture (pulldown) of PI3K delta from cell lysate (PI3K delta): captures (pulls down)
SMILES: Cc1nc(NC(=O)CCOCCOCCOCCOCCN)sc1-c1ccc(Cl)c(S(C)(=O)=O)c1.Cl [phenylthiazole ligand 1, 3-(2-{2-[2-(2-amino-ethoxy)-ethoxy]-ethoxy}-ethoxy)-N-[5-(4-chloro-3-methanesulfonyl-phenyl)-4-methyl-thiazol-2yl]-propionamide hydrochloride]

From patent publication US20110111972A1, “SELECTIVITY PROFILING OF PI3K INTERACTING MOLECULES AGAINST MULTIPLE TARGETS” (CELLZOME AG, priority 2008, published 2011)
